# Experimental data published in US20090227619A1, “Harmine derivatives, intermediates used in their preparations, preparation processes and use therefo” (priority 2003, published 2009).
# Read-outs that look alike come from different tables or passages of the source.
# Columns and labels:
# [1] = test system: HepG2; assay: In vitro cytotoxicity, IC50 by MTT method, HepG2; type: cell-based, human
# Method: (§1) Culture medium powder RPMI1640 was dissolved in a proper amount of tri-distilled water according to the instruction of the product. […] It was the basic culture solution. The complete culture solution was added with FBS having a final concentration of 10%, 100 U/ml penicillin and 100 µg/ml streptomycin. The solution was fully stirred by a magnetic blender, and the pH of the solution was adjusted to 6.8-7.0. The volume was kept constant. After being filtered and disinfected, the solution was kept into several containers which were sealed and stored at 4° C.
# (§2) The cells were placed in a culture dish followed by the addition of complete culture liquid RPMI1640 and then cultured in a incubator comprising 5% CO2 at 37° C. In the exponential growth phase, the cells grew vigorously. If the culture liquid became yellow, the liquid should be replaced instantly.
# (§3) The cells, at a concentration of 10^5/ml, were inoculated at a 96-pore culture plate. In each pore, 100 μl cells were inoculated. The cells were placed in a CO2 incubator until the cells were in the logarithmic growth phase. The samples to be tested were added according to the preset concentration gradient. For each gradient, the test was conducted at least three times. An equivalent amount of solvent for dissolving the samples was added in the control group. After 48 h of culture, each pore was added 20 μl MTT (5 mg/ml). The cells were cultured at 37° C. for 4 h. After the supernatant was carefully removed, 100 μl DMSO was added in each pore. The plate was agitated for about 10 minutes such that the precipitates were dissolved. After that, OD value was identified with a Microplate Reader at the wavelength of 490 nm. The survival rate of the cells at various concentrations was calculated according to the following formula:
# (§4) Survival rate %=average OD value of the sample group/average OD value of the control group×100%
# (§5) Plots of log survival rate of the cells vs. concentration of the medicament were constructed, and the IC50 value of each sample was calculated according to graphing methods.
# [2] = test system: PLA-801; assay: In vitro cytotoxicity, IC50 by MTT method, PLA-801; type: cell-based
# Method: as §1, §2, §3, §4, §5
# [3] = test system: Bel-7402; assay: In vitro cytotoxicity, IC50 by MTT method, Bel-7402; type: cell-based
# Method: as §1, §2, §3, §4, §5
# [4] = test system: BGC-823; assay: In vitro cytotoxicity, IC50 by MTT method, BGC-823; type: cell-based
# Method: as §1, §2, §3, §4, §5
# [5] = test system: Hela; assay: In vitro cytotoxicity, IC50 by MTT method, Hela; type: cell-based
# Method: as §1, §2, §3, §4, §5
# [6] = test system: Lovo; assay: In vitro cytotoxicity, IC50 by MTT method, Lovo; type: cell-based
# Method: as §1, §2, §3, §4, §5
# [7] = test system: NIH3T3; assay: In vitro cytotoxicity, IC50 by MTT method, NIH3T3; type: cell-based
# Method: as §1, §2, §3, §4, §5
# [8] = test system: Lewis lung cancer; conditions: Lewis lung cancer;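 further: mice implanted subcutaneously in the axilla with Lewis lung tumor cells, treated starting the following day, killed roughly three weeks after implantation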
# [9] = test system: S180 sarcoma; conditions: S180 sarcoma; for Body weight of the animals, beginning, First time / Body weight of the animals, end, First time / Inhibition rate, First time / Weight of the tumor X ± SD, First time: ip × 10qd
# [10] = HepG2 cell strain, read-out: IC50 HepG2
# [11] = PLA-801 cell strain, read-out: IC50 PLA-801
# [12] = Bel7402 cell strain, read-out: IC50 Bel7402
# [13] = BGC823 cell strain, read-out: IC50 BGC823
# [14] = Hela cell strain, read-out: IC50 Hela
# [15] = Lovo cell strain, read-out: IC50 Lovo
# [16] = NIH3T3 cell strain, read-out: IC50 NIH3T3
# [17] = Homo sapiens, HepG2, MTT, read-out: IC50
# [18] = Homo sapiens, Bel-7402, BeI7402, MTT, read-out: IC50
# [19] = Homo sapiens, BGC-823, BGC823, MTT, read-out: IC50
# [20] = Homo sapiens, Hela, MTT, read-out: IC50
# [21] = Homo sapiens, Lovo, MTT, read-out: IC50
# [22] = Mus musculus, NIH3T3, MTT, read-out: IC50
# [23] = Dosage 50, ip × 10qd, first time
# [24] = Dosage 100, ip × 10qd, first time
molecule,measurement,setting,value
"2,9-dibenzyl-β-carbolinium bromate [Compound 89]",IC50,[1]; [10],30 µM
same,IC50,[2]; [11],100 µM
same,IC50,[3]; [12],70 µM
same,IC50,[4]; [13],60 µM
same,IC50,[5]; [14],20 µM
same,IC50,[6]; [15],30 µM
same,IC50,[7]; [16],30 µM
"2,9-diethyl-β-carbolinium bromate [Compound 88]",IC50,[1]; [10],430 µM
same,IC50,[2]; [11],1200 µM
same,IC50,[3]; [12],1310 µM
same,IC50,[4]; [13],1310 µM
same,IC50,[5]; [14],860 µM
same,IC50,[6]; [15],2150 µM
same,IC50,[7]; [16],630 µM
"2,9-dimethyl-β-carbolinium bromate [Compound 87]",IC50,[1]; [10],200 µM
same,IC50,[2]; [11],280 µM
same,IC50,[3]; [12],370 µM
same,IC50,[4]; [13],260 µM
same,IC50,[5]; [14],70 µM
same,IC50,[6]; [15],1820 µM
same,IC50,[7]; [16],380 µM
"COc1ccc2c3ccnc(C)c3n(CCCc3ccccc3)c2c1 [Compound 8, 9-phenylpropyl-7-methoxy-1-methyl-β-carboline]",IC50,[1]; [17],40 µM
same,IC50,"[2]; PLA-801, MTT, read-out: IC50",50 µM
same,IC50,[3]; [18],40 µM
same,IC50,[4]; [19],50 µM
same,IC50,[5]; [20],20 µM
same,IC50,[6]; [21],30 µM
same,IC50,[7]; [22],20 µM
"COC(=O)c1cc2c(cn1)[nH]c1ccccc12 [Compound 9, methyl β-carboline-3-carboxylate]",IC50,"[1]; Homo sapiens, HepG2",2510 µM
same,IC50,[2],310 µM
same,IC50,"[3]; Homo sapiens, Bel-7402",300 µM
same,IC50,"[4]; Homo sapiens, BGC-823",290 µM
same,IC50,"[5]; Homo sapiens, HeLa",100 µM
same,IC50,"[6]; Homo sapiens, LoVo",170 µM
same,IC50,"[7]; Mus musculus, NIH3T3",200 µM
"CCOC(=O)c1cc2c(cn1)[nH]c1ccccc12 [Compound 10, ethyl β-carboline-3-carboxylate]",IC50,"[1]; Homo sapiens, HepG2",1250 µM
same,IC50,[2],280 µM
same,IC50,"[3]; Homo sapiens, Bel-7402",2910 µM
same,IC50,"[4]; Homo sapiens, BGC-823",1280 µM
same,IC50,"[5]; Homo sapiens, HeLa",60 µM
same,IC50,"[6]; Homo sapiens, LoVo",1010 µM
same,IC50,"[7]; Mus musculus, NIH3T3",80 µM
same,"Body weight of the animals, beginning, First time",[8]; [23],20.1 g
same,"Inhibition rate, First time",[8]; [23],32.92%
same,"Weight of the tumor X ± SD, First time",[8]; [23],1.63 ± 0.16 g
same,"Body weight of the animals, end, First time","[8]; Dosage 100 (mg/ml), ip × 10qd, first time",23.6 g
same,"Body weight of the animals, beginning, First time",[8]; [24],20.3 g
same,"Inhibition rate, First time",[8]; [24],41.98%
same,"Weight of the tumor X ± SD, First time",[8]; [24],1.41 ± 0.21 g
same,Inhibition rate (%) Lewis cancer,"[8]; comparison table 43, in vivo",41.98%
same,"Body weight of the animals, beginning, First time",[9]; Dosage 50 (mg/ml),20.0 g
same,"Body weight of the animals, end, First time",[9]; Dosage 50 (mg/ml),26.4 g
same,"Inhibition rate, First time",[9]; Dosage 50 (mg/ml),30.92%
same,"Weight of the tumor X ± SD, First time",[9]; Dosage 50 (mg/ml),1.81 ± 0.20 g
same,"Body weight of the animals, beginning, First time",[9]; Dosage 100 (mg/ml),20.1 g
same,"Body weight of the animals, end, First time",[9]; Dosage 100 (mg/ml),25.5 g
same,"Inhibition rate, First time",[9]; Dosage 100 (mg/ml),40.46%
same,"Weight of the tumor X ± SD, First time",[9]; Dosage 100 (mg/ml),1.56 ± 0.17 g
same,Inhibition rate (%) S180 sarcomata,"[9]; comparison table 43, in vivo",40.46%
"CCCCOC(=O)c1cc2c(cn1)[nH]c1ccccc12 [Compound 18, butyl β-carboline-3-carboxylate]",IC50,[1]; [17],270 µM
same,IC50,"[2]; PLA-801, MTT, read-out: IC50",680 µM
same,IC50,[3]; [18],310 µM
same,IC50,[4]; [19],390 µM
same,IC50,[5]; [20],290 µM
same,IC50,[6]; [21],100 µM
same,IC50,[7]; [22],150 µM
"NNC(=O)c1cc2c(cn1)[nH]c1ccccc12 [Compound 20, β-carboline-3-carbohydrazine]",IC50,"[1]; HepG2, MTT, read-out: IC50",360 µM
same,IC50,"[2]; PLA-801, MTT, read-out: IC50",740 µM
same,IC50,"[3]; BeI7402, MTT, read-out: IC50",1430 µM
same,IC50,"[4]; BGC823, MTT, read-out: IC50",740 µM
same,IC50,"[5]; Hela, MTT, read-out: IC50",400 µM
same,IC50,"[6]; Lovo, MTT, read-out: IC50",310 µM
same,IC50,"[7]; NIH3T3, MTT, read-out: IC50",320 µM
